The values that follow come from ChEMBL document CHEMBL4376834, “Discovery of 4H-Chromen-4-one Derivatives as a New Class of Selective Rho Kinase (ROCK) Inhibitors, which Showed Potent Activity in ex Vivo Diabetic Retinopathy Models” (J Med Chem, 2019).

A short description of assay [1]: Inhibition of human PKA using Kemptide as substrate incubated for 40 mins in presence of [gamma-33P]ATP by radiometric scintillation counting analysis.
Assay [2] addresses Rho-associated protein kinase 1 (Homo sapiens, UniProt Q13464). In words: Inhibition of recombinant human ROCK1 (17 to 535 residues) using […] as substrate incubated for 40 mins in presence of [gamma-33P]ATP and 10 uM ATP by radiometric scintillation counting analysis.
Assay [3] has as its target Rho-associated protein kinase 2 (Homo sapiens, UniProt O75116). As to the kind of experiment: Inhibition of recombinant human ROCK2 (11 to 552 residues) using KEAKEKRQEQIAKR as substrate incubated for 40 mins in presence of [gamma-33P]ATP and 10 uM ATP by radiometric scintillation counting analysis.

pIC50: −log10 of the molar value.

Chain of Rho-associated protein kinase 1 (Q13464 whole entry, the tested form may be a part): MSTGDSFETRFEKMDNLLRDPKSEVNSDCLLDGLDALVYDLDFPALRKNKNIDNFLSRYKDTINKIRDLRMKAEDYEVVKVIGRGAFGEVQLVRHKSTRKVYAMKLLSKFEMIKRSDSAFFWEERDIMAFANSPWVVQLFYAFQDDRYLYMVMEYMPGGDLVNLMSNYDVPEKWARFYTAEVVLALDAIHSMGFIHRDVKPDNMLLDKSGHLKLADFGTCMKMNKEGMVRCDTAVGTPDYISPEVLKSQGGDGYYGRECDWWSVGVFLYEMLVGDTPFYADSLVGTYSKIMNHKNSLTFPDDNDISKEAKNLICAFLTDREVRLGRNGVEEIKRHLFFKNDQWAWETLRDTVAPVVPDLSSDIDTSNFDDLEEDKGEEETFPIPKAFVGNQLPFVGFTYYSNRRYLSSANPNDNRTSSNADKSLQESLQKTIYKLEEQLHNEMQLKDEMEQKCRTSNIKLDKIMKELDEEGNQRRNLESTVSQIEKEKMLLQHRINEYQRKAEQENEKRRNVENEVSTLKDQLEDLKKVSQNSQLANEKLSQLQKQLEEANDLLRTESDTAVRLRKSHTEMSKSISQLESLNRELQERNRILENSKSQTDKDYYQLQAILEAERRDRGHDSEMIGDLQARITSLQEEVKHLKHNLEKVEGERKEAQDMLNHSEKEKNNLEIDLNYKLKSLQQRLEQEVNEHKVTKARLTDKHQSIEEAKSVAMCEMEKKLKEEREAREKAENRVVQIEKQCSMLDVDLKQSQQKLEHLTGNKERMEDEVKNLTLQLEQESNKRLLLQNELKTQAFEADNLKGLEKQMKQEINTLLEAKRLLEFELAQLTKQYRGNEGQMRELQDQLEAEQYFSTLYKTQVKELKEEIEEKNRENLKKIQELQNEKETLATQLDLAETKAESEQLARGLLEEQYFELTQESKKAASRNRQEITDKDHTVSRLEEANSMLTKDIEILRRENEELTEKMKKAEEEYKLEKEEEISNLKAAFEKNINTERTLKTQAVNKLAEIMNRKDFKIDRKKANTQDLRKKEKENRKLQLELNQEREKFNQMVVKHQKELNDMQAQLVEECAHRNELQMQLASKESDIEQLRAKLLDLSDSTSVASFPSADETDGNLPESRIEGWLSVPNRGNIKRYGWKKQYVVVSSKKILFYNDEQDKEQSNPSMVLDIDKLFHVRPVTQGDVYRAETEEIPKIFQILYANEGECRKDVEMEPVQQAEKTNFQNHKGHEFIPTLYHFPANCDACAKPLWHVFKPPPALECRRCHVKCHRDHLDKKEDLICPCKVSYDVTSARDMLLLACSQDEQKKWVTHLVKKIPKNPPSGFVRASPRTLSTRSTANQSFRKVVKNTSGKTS
Chain of Rho-associated protein kinase 2 (O75116 whole entry, the tested form may be a part): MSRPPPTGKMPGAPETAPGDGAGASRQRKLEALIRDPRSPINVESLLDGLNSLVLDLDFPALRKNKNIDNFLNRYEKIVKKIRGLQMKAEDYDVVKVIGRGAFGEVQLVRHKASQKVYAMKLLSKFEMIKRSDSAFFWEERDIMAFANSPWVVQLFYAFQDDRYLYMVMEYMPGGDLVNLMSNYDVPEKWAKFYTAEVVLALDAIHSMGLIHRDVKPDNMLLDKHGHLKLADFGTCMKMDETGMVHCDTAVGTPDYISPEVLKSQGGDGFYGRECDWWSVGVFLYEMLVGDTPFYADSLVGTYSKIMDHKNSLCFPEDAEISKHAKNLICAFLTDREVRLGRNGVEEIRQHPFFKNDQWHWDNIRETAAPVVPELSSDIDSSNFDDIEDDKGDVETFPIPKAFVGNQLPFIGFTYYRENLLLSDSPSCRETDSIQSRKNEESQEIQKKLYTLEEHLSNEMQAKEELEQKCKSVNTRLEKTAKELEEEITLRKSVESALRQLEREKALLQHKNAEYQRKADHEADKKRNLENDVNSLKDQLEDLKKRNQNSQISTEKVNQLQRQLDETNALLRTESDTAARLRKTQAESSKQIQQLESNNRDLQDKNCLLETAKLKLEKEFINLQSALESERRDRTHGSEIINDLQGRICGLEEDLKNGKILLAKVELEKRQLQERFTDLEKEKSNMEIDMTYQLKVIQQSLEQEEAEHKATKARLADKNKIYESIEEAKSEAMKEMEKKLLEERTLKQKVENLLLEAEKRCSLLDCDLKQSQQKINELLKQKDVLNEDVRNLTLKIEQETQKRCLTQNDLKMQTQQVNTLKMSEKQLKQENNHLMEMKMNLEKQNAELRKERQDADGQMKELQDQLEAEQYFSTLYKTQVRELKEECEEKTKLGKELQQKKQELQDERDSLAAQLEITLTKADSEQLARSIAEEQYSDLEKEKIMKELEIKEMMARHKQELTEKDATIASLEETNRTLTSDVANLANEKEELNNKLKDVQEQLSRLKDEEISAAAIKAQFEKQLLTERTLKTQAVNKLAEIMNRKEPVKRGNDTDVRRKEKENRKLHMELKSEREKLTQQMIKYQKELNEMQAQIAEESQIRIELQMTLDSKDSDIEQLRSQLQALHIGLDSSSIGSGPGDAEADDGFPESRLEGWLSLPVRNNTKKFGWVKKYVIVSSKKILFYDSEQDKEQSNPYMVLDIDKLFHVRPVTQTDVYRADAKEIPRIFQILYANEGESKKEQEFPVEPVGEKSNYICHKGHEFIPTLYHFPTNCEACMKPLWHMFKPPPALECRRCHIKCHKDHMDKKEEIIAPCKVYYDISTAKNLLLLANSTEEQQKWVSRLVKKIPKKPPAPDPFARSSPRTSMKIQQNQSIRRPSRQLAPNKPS

What is called pIC50 is −log10 of the IC50, conventionally taken in molar units. As to `CN(C)c1ccc(C(=O)Nc2ccc(CNC(=O)COc3ccc4c(=O)ccoc4c3)cc2)cc1`, the pIC50 was less than 5.00 in assay [1], less than 5.00 in assay [2] and 6.00 in assay [3].
With `O=C(COc1ccc2c(=O)ccoc2c1)Nc1cccc(NS(=O)(=O)c2ccc(C(F)(F)F)cc2)c1`, the values for the pIC50 in assay [1], in assay [2] and in assay [3] were less than 5.00, less than 5.00 and 5.16, respectively.
Take `Cc1cc(NC(=O)COc2ccc3c(=O)ccoc3c2)cc(NC(=O)c2ccc(N(C)C)cc2)c1C`: the figures for the pIC50 in assay [1], in assay [2] and in assay [3] were less than 5.00, 5.40 and 6.43, respectively.
The matching figures for `Cc1ccc(NC(=O)c2ccc(N(C)C)cc2)cc1NC(=O)COc1ccc2c(=O)ccoc2c1`: less than 5.00, less than 5.00 and 5.45.
In the case of `CN(C)c1ccc(C(=O)Nc2cccc(NS(=O)(=O)COc3ccc4c(=O)ccoc4c3)c2)cc1`, the pIC50 in assay [1] is less than 5.00; in assay [2] it was 6.93; in assay [3], 7.57.
On the same counts, the results for `CN(C)c1ccc(C(=O)Nc2cc(F)cc(NC(=O)COc3ccc4c(=O)ccoc4c3)c2)cc1` are less than 5.00, 7.31 and 7.66.
With `CC(C)(C)c1ccc(S(=O)(=O)Nc2cccc(NC(=O)COc3ccc4c(=O)ccoc4c3)c2)cc1`, the figures for the pIC50 in assay [1], in assay [2] and in assay [3] were less than 5.00, less than 5.00 and 6.05, respectively.
`CN(C)c1ccc(S(=O)(=O)Nc2cccc(NC(=O)COc3ccc4c(=O)ccoc4c3)c2)cc1`: the pIC50 in assay [1] was less than 5.00; in assay [2], 6.10; in assay [3], 6.58.
On to `O=C(COc1ccc2c(=O)ccoc2c1)Nc1cccc(NS(=O)(=O)c2ccc(OC(F)(F)F)cc2)c1`, for which the pIC50 is less than 5.00 in assay [1], 5.19 in assay [2] and 5.89 in assay [3].
The matching figures for `CN(C)c1ccc(C(=O)Nc2ccc(NC(=O)COc3ccc4c(=O)ccoc4c3)cc2C(F)(F)F)cc1`: less than 5.00, less than 5.00 and 5.15.
The matching figures for `Cn1ccc(S(=O)(=O)Nc2cccc(NC(=O)COc3ccc4c(=O)ccoc4c3)c2)n1`: less than 5.00, less than 5.00 and 5.87.
The matching figures for `CN(C)c1ccc(C(=O)Nc2ccc(NC(=O)COc3ccc4c(=O)ccoc4c3)cc2)cc1`: less than 5.00, 5.98 and 6.52.
Regarding `O=C(COc1ccc2c(=O)ccoc2c1)Nc1cccc(NC(=O)c2ccc(C(=O)O)cc2)c1`, the pIC50 is less than 5.00 in assay [1], 5.16 in assay [2] and 5.69 in assay [3].
The matching figures for `CN(C)c1ccc(C(=O)Nc2cc(NC(=O)COc3ccc4c(=O)ccoc4c3)cc(C(F)(F)F)c2)cc1`: less than 5.00, less than 5.00 and less than 5.00.
On the same counts, the results for `Cc1ccc(NC(=O)COc2ccc3c(=O)ccoc3c2)cc1NC(=O)c1ccc(N(C)C)cc1` are less than 5.00, 5.98 and 6.77.
The matching figures for `CN(C)c1ccc(C(=O)Nc2cc(Br)cc(NC(=O)COc3ccc4c(=O)ccoc4c3)c2)cc1`: less than 5.00, less than 5.00 and 5.34.
Consider `Cc1c(NC(=O)COc2ccc3c(=O)ccoc3c2)cccc1NC(=O)c1ccc(N(C)C)cc1`, for which the pIC50 in assay [1], in assay [2] and in assay [3] was less than 5.00 in each case.
As to `Cc1cc(NC(=O)COc2ccc3c(=O)ccoc3c2)cc(NC(=O)c2ccc(N(C)C)cc2)c1`, the pIC50 in assay [1], in assay [2] and in assay [3] was less than 5.00 throughout.
`Cc1cc(NC(=O)COc2ccc3c(=O)ccoc3c2)ccc1NC(=O)c1ccc(N(C)C)cc1`: the figures for the pIC50 in assay [1], in assay [2] and in assay [3] were less than 5.00, less than 5.00 and 5.38, respectively.
